Results from PMC2791876, “Comparison of effects of green tea catechins on apicomplexan hexose transporters and mammalian orthologues” (Molecular and Biochemical Parasitology, 2009).

Key:
[1] = molecular target: T1, Plasmodium falciparum hexose transporter (PfHT) (Plasmodium falciparum, UniProt O97467); settings: cited from earlier work; for Km: substrate Km, read-out: Km for transport via PfHT
T1 construct: expressed in transfected cells; host or cells: Xenopus laevis oocytes
T1 sequence (O97467 1-504): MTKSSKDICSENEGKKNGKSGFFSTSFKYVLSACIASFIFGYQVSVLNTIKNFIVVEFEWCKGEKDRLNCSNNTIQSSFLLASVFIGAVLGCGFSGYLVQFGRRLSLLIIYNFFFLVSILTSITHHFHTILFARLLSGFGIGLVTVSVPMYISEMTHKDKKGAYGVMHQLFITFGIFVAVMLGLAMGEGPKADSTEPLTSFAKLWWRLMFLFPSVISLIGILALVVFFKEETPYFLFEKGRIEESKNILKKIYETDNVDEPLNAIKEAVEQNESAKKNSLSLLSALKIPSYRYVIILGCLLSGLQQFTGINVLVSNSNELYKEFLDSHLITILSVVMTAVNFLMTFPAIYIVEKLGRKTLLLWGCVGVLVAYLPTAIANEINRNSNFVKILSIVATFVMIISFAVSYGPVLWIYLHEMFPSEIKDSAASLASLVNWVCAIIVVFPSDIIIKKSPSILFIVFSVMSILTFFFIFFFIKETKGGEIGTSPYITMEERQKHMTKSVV

[2] = molecular target: T1, Plasmodium falciparum hexose transporter (PfHT); assay: cell-based; settings: D-glucose (38 μM) transport, X. laevis oocytes, room temperature; mean ± SEM (n ≥ 3)
Procedure: (§1) The effect of the green tea catechins, EC, ECG, EGC and EGCG, on D-glucose transport via PfHT, GLUT1 and the Babesia bovis hexose transporter 1 (BboHT1; [12]) and D-fructose transport via GLUT5 was assayed in Xenopus laevis oocytes expressing each of the hexose transporters, using methods described previously.

[3] = molecular target: T2, mammalian facilitative glucose transporter 1 (GLUT1) (Homo sapiens, UniProt P11166); assay: D-glucose transport via GLUT1 expressed in Xenopus laevis oocytes; format: cell-based; settings: D-glucose (38 μM) transport, X. laevis oocytes, room temperature; mean ± SEM (n ≥ 3)
T2 construct: expressed in transfected cells; host or cells: Xenopus laevis oocytes
T2 sequence (P11166 1-492): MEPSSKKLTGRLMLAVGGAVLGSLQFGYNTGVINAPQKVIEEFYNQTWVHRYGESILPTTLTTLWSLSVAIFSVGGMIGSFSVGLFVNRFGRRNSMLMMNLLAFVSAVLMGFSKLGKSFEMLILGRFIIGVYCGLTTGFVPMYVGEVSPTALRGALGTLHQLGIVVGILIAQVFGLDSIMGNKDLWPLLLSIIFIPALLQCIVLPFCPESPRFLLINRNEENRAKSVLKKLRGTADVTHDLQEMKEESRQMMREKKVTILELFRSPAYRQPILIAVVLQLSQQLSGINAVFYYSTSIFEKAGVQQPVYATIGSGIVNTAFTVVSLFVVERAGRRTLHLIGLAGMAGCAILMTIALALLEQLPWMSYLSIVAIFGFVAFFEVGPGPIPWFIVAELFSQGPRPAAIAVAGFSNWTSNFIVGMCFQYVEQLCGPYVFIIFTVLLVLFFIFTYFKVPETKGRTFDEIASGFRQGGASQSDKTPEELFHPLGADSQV
Procedure: as §1

[4] = molecular target: T3, GLUT5 (Homo sapiens, UniProt P22732); assay: D-fructose transport via GLUT5 expressed in Xenopus laevis oocytes; format: cell-based, mammalian; settings: D-fructose (100 μM) transport, X. laevis oocytes, room temperature; mean ± SEM (n ≥ 3)
T3 construct: expressed in transfected cells; host or cells: Xenopus laevis oocytes
T3 sequence (P22732 1-501): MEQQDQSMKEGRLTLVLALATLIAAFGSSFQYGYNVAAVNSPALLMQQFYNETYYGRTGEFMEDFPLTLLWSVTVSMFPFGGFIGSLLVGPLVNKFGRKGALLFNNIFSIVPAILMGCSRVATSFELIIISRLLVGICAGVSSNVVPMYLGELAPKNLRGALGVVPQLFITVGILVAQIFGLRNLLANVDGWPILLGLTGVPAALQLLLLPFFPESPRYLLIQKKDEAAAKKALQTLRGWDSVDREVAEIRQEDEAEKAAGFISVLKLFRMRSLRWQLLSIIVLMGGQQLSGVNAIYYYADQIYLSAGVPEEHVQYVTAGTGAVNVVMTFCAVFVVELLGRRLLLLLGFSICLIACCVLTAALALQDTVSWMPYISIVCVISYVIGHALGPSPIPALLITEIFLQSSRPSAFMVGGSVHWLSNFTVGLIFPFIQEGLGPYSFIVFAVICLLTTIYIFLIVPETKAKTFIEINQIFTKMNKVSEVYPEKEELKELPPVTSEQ
Procedure: as §1

[5] = molecular target: T4, Babesia bovis hexose transporter 1 (BboHT1) (Babesia bovis, UniProt B0LKY8); assay: D-glucose transport via BboHT1 expressed in Xenopus laevis oocytes; format: cell-based; settings: X. laevis oocytes, room temperature, mean ± SEM (n ≥ 3)
T4 sequence (B0LKY8 entry or part of it): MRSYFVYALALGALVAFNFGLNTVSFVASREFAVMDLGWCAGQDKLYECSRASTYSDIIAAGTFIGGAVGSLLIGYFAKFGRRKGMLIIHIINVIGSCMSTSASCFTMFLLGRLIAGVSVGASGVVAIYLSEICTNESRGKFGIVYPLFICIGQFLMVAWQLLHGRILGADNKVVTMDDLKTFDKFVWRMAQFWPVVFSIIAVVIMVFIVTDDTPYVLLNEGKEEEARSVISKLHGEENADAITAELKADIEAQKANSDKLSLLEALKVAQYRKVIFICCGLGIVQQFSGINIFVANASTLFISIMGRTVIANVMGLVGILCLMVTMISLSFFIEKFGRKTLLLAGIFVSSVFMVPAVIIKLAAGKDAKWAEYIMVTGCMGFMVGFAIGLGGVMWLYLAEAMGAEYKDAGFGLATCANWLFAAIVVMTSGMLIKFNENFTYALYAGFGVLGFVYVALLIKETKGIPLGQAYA
Procedure: as §1, with “previously. The compounds were tested initially at a concentration of 0.5 mM (data not shown).” for “previously.”

[6] = tested on: Babesia divergens (strain Rouen 1987); assay: Babesia divergens growth inhibition; format: cell-based; settings: B. divergens, mean ± SEM; for inhibition of parasite growth: 200 μM, n = 3
Procedure: (§2) Furthermore, given that catechins are competitive inhibitors of D-glucose transport mediated by GLUT1 [8], the relationship between external D-glucose concentration and IC50 values was examined. […] The effect of catechins was also tested on Babesia divergens (strain Rouen 1987) growth as described.

[7] = tested on: L323N BboHT1; assay: D-glucose uptake by mutant L323N BboHT1 in X. laevis oocytes; format: cell-based, Babesia bovis; settings: 0.5 mM catechin; L323N vs wild-type; P < 0.001
[8] = tested on: P. falciparum (3D7); assay: P. falciparum growth in vitro; format: cell-based, Plasmodium falciparum; settings: P. falciparum 3D7, 12 mM D-glucose, 48 h; mean ± SEM (n ≥ 3); read-out: IC50 parasite growth
Procedure: as §2

[9] = molecular target: T5, PfHT (Plasmodium falciparum, UniProt O97467); assay: 3-O-methyl-D-glucose (3OMG) transport via PfHT in X. laevis oocytes; format: cell-based; settings: 3OMG (17 μM), mean ± SEM, n = 3
T5 construct: expressed in transfected cells; host or cells: Xenopus laevis oocytes

[10] = molecular target: GLUT1; parameters: method as in PMID 12970085; settings: human erythrocytes, zero-trans D-glucose efflux; read-out: Ki for D-glucose transport via GLUT1, published previously; cited from earlier work
[11] = molecular target: T4, Babesia bovis hexose transporter 1 (BboHT1); parameters: method as in PMID 18638508; settings: cited from earlier work
[12] = tested on: B. bovis parasites; parameters: method as in PMID 18638508; settings: cited from earlier work

Row | Molecule | Ki [2] | Ki [3] | Ki [4] | Ki [5] | further results
1 | CO[C@@H]([C@H](O)[C@H](O)CO)[C@@H](O)C=O [3OMG, 3-O-methyl-D-glucose] | – | – | – | – | Km [1]: 1300 µM
2 | OC[C@H]1OC(O)[C@H](O)[C@@H](O)[C@@H]1O (stereo partly drawn) [D-glucose] | – | – | – | – | Km [1]: 1000 µM
3 | Oc1cc(O)c2c(c1)O[C@H](c1ccc(O)c(O)c1)[C@H](O)C2 [EC, (−)-epicatechin] | > 500 µM | ~500 µM | > 500 µM | 108 ± 52 µM | inhibition at 200 µM ([6]; Babesia divergens, n = 3, read-out: inhibition of parasite growth): 66 ± 14%; effect on D-glucose uptake by mutant versus wild-type BboHT1 [7]: affected significantly less
4 | O=C(O[C@@H]1Cc2c(O)cc(O)cc2O[C@@H]1c1ccc(O)c(O)c1)c1cc(O)c(O)c(O)c1 [ECG, (−)-epicatechin-gallate] | 45 ± 10 µM | 68 ± 18 µM | 117 ± 54 µM | > 500 µM | IC50 [8]: 32 ± 1 µM; Ki [9]: 18 ± 3 µM; Ki [10]: 0.14 µM
5 | Oc1cc(O)c2c(c1)O[C@H](c1cc(O)c(O)c(O)c1)[C@H](O)C2 [EGC, (−)-epigallocatechin] | > 500 µM | > 500 µM | > 500 µM | 168 ± 83 µM | inhibition of parasite growth [6]: 30 ± 10%
6 | C=CCCCCCCCCCO[C@H]1[C@H](O)[C@@H](CO)OC(O)[C@@H]1O (stereo partly drawn) [compound 3361] | – | – | – | – | inhibition of D-glucose transport via PfHT (mode) [1]: specific and competitive inhibitor; inhibition of BboHT1 [11]: good inhibitor; killing of B. bovis parasites in culture [12]: did not kill
7 | (−)-epigallocatechin-gallate [EGCG] | 90 ± 24 µM | 105 ± 18 µM | 113 ± 48 µM | > 500 µM | IC50 [8]: 17 ± 3 µM; inhibition of parasite growth [6]: 71 ± 2%; Ki [10]: 0.97 µM
